Test results as given in ChEMBL document CHEMBL1126980, “New, potent anthelmintic and acaricidal agents: 4-deoxy-4-thio-substituted avermectin derivatives” (Bioorg Med Chem Lett, 1993).
In brackets after ≈: the same amount, converted by molar mass.

Tests used:
[1] = test system: Artemia salina; assay: Tested in vitro for the biological efficacy using Artemia salina (brine shrimp) immobilization assay; type: functional
[2] = test system: Caenorhabditis elegans; assay: Tested in vitro for the biological efficacy using Caenorhabditis elegans binding assay; type: functional, organism-based
[3] = test system: Tetranychus urticae; assay: Tested for acaricidal efficacy using a Tetranychus urticae (two-spotted spider mite, TSSM) contact assay; type: functional; parameters: concentration or dose not given beside the values
[4] = test system: Trichostrongylus colubriformis; assay: Tested in vivo for the biological efficacy using Trichostrongylus colubriformis gerbil assay; type: functional
[5] = test system: Ovis aries; assay: Tested for the anthelmintic efficacy against Oesphagostomum columbianum at 0.1 mg/kg; range is 91-100%; type: functional
[6] = test system: Ovis aries; assay: Tested for the anthelmintic efficacy against Cooperia curticei at 0.1 mg/kg; range is 91-100%; type: functional
[7] = test system: Ovis aries; assay: Tested for the anthelmintic efficacy against Ostertagia circumcincta at 0.1 mg/kg; range is 91-100%; type: functional
[8] = test system: Ovis aries; assay: Tested for the anthelmintic efficacy against Trichostrongylus axei at 0.1 mg/kg; range is 91-100%; type: functional
[9] = test system: Ovis aries; assay: Tested for the anthelmintic efficacy against Trichostrongylus colubriformis at 0.1 mg/kg; range is 91-100%; type: functional
[10] = test system: Ovis aries; assay: Tested for anthelmintic efficacy against Haemonchus contortus at 0.1 mg/kg; range is 91-100%; type: functional

Row | SMILES | IC100 [1] | IC50 [2] | Mortality [3] | ED85 [4] | Reduction [5] | Reduction [6] | Reduction [7] | Reduction [8] | Reduction [9] | Reduction [10]
1 | CCC(C)[C@H]1O[C@]2(CC[C@@H]1C)C[C@@H]1C[C@@H](C/C=C(\C)[C@@H](O[C@H]3C[C@H](OC)[C@@H](O[C@H]4C[C@H](OC)[C@H]([S+]([O-])CCO)[C@H](C)O4)[C@H](C)O3)[C@@H](C)/C=C/C=C3\CO[C@@H]4[C@H](O)C(C)=C[C@@H](C(=O)O1)[C@]34O)O2 (some centres not stated) | 870 ng/mL | 0.188 ng/mL (≈ 0.198 nM) | 31% | 0.25 mg/kg | – | – | – | – | – | –
2 | CCC(C)[C@H]1O[C@]2(C=C[C@@H]1C)C[C@@H]1C[C@@H](C/C=C(\C)[C@@H](O[C@H]3C[C@H](OC)[C@@H](O[C@H]4C[C@H](OC)[C@@H](SCC(C)O)[C@H](C)O4)[C@H](C)O3)[C@@H](C)/C=C/C=C3\CO[C@@H]4[C@H](O)C(C)=C[C@@H](C(=O)O1)[C@]34O)O2 (some centres not stated) | 870 ng/mL | 0.153 ng/mL (≈ 0.162 nM) | 88% | 0.125 mg/kg | – | – | – | – | – | –
3 | CCC(C)[C@H]1O[C@]2(C=C[C@@H]1C)C[C@@H]1C[C@@H](C/C=C(\C)[C@@H](O[C@H]3C[C@H](OC)[C@@H](O[C@H]4C[C@H](OC)[C@@H](SCCCO)[C@H](C)O4)[C@H](C)O3)[C@@H](C)/C=C/C=C3\CO[C@@H]4[C@H](O)C(C)=C[C@@H](C(=O)O1)[C@]34O)O2 (some centres not stated) | 870 ng/mL | 0.153 ng/mL (≈ 0.162 nM) | 53% | 0.25 mg/kg | – | – | – | – | – | –
4 | CCC(C)[C@H]1O[C@]2(CC[C@@H]1C)C[C@@H]1C[C@@H](C/C=C(\C)[C@@H](O[C@H]3C[C@H](OC)[C@@H](O[C@H]4C[C@H](OC)[C@H](S(=O)(=O)CCO)[C@H](C)O4)[C@H](C)O3)[C@@H](C)/C=C/C=C3\CO[C@@H]4[C@H](O)C(C)=C[C@@H](C(=O)O1)[C@]34O)O2 (some centres not stated) | 650 ng/mL | 0.119 ng/mL (≈ 0.123 nM) | 48% | 0.125 mg/kg | 91% | 91% | 91% | 91% | 91% | 91%
5 | CCC(C)[C@H]1O[C@]2(C=C[C@@H]1C)C[C@@H]1C[C@@H](C/C=C(\C)[C@@H](O[C@H]3C[C@H](OC)[C@@H](O[C@H]4C[C@H](OC)[C@@H]([S+]([O-])CCO)[C@H](C)O4)[C@H](C)O3)[C@@H](C)/C=C/C=C3\CO[C@@H]4[C@H](O)C(C)=C[C@@H](C(=O)O1)[C@]34O)O2 (some centres not stated) | 870 ng/mL | 0.469 ng/mL (≈ 0.494 nM) | 69% | 0.063 mg/kg | – | – | – | – | – | –
6 | CCC(C)[C@H]1O[C@]2(C=C[C@@H]1C)C[C@@H]1C[C@@H](C/C=C(\C)[C@@H](O[C@H]3C[C@H](OC)[C@@H](O[C@H]4C[C@H](OC)[C@H]([S+]([O-])CCO)[C@H](C)O4)[C@H](C)O3)[C@@H](C)/C=C/C=C3\CO[C@@H]4[C@H](O)C(C)=C[C@@H](C(=O)O1)[C@]34O)O2 (some centres not stated) | 1300 ng/mL | > 1.27 ng/mL | 13% | 0.125 mg/kg | – | – | – | – | – | –
7 | CCC(C)[C@H]1O[C@]2(C=C[C@@H]1C)C[C@@H]1C[C@@H](C/C=C(\C)[C@@H](O[C@H]3C[C@H](OC)[C@@H](O[C@H]4C[C@H](OC)[C@@H](SCCNC(C)=O)[C@H](C)O4)[C@H](C)O3)[C@@H](C)/C=C/C=C3\CO[C@@H]4[C@H](O)C(C)=C[C@@H](C(=O)O1)[C@]34O)O2 (some centres not stated) | 870 ng/mL | 0.165 ng/mL (≈ 0.169 nM) | 63% | 0.063 mg/kg | – | – | – | – | – | –
8 | CCC(C)[C@H]1O[C@]2(C=C[C@@H]1C)C[C@@H]1C[C@@H](C/C=C(\C)[C@@H](O[C@H]3C[C@H](OC)[C@H](SCCO)[C@H](C)O3)[C@@H](C)/C=C/C=C3\CO[C@@H]4[C@H](O)C(C)=C[C@@H](C(=O)O1)[C@]34O)O2 (some centres not stated) | 870 ng/mL | – | 94% | 0.063 mg/kg | – | – | – | – | – | –
9 | CCC(C)[C@H]1O[C@]2(C=C[C@@H]1C)C[C@@H]1C[C@@H](C/C=C(\C)[C@@H](O[C@H]3C[C@H](OC)[C@H](SC)[C@H](C)O3)[C@@H](C)/C=C/C=C3\CO[C@@H]4[C@H](O)C(C)=C[C@@H](C(=O)O1)[C@]34O)O2 (some centres not stated) | 6930 ng/mL | 0.422 ng/mL (≈ 0.556 nM) | 100% | 0.125 mg/kg | – | – | – | – | – | –
10 | CCC(C)[C@H]1O[C@]2(C=C[C@@H]1C)C[C@@H]1C[C@@H](C/C=C(\C)[C@@H](O[C@H]3C[C@H](OC)[C@@H](O[C@H]4C[C@H](OC)[C@@H](S(=O)(=O)CC)[C@H](C)O4)[C@H](C)O3)[C@@H](C)/C=C/C=C3\CO[C@@H]4[C@H](O)C(C)=C[C@@H](C(=O)O1)[C@]34O)O2 (some centres not stated) | 870 ng/mL | 0.123 ng/mL (≈ 0.13 nM) | 64% | 0.063 mg/kg | – | – | – | – | – | –
11 | CCC(C)[C@H]1O[C@]2(C=C[C@@H]1C)C[C@@H]1C[C@@H](C/C=C(\C)[C@@H](O[C@H]3C[C@H](OC)[C@@H](O[C@H]4C[C@H](OC)[C@H](SCC(C)O)[C@H](C)O4)[C@H](C)O3)[C@@H](C)/C=C/C=C3\CO[C@@H]4[C@H](O)C(C)=C[C@@H](C(=O)O1)[C@]34O)O2 (some centres not stated) | 870 ng/mL | 0.216 ng/mL (≈ 0.228 nM) | 89% | 0.063 mg/kg | – | – | – | – | – | –
12 | CCC(C)[C@H]1O[C@]2(C=C[C@@H]1C)C[C@@H]1C[C@@H](C/C=C(\C)[C@@H](O[C@H]3C[C@H](OC)[C@@H](O[C@H]4C[C@H](OC)[C@@H](S(=O)(=O)CCO)[C@H](C)O4)[C@H](C)O3)[C@@H](C)/C=C/C=C3\CO[C@@H]4[C@H](O)C(C)=C[C@@H](C(=O)O1)[C@]34O)O2 (some centres not stated) | 870 ng/mL | 0.351 ng/mL (≈ 0.364 nM) | 64% | 0.063 mg/kg | – | – | – | – | – | –
13 | CCC(C)[C@H]1O[C@]2(CC[C@@H]1C)C[C@@H]1C[C@@H](C/C=C(\C)[C@@H](O[C@H]3C[C@H](OC)[C@@H](O[C@H]4C[C@H](OC)[C@H](S(C)(=O)=O)[C@H](C)O4)[C@H](C)O3)[C@@H](C)/C=C/C=C3\CO[C@@H]4[C@H](O)C(C)=C[C@@H](C(=O)O1)[C@]34O)O2 (some centres not stated) | 870 ng/mL | 0.084 ng/mL (≈ 0.0896 nM) | 64% | 0.125 mg/kg | – | – | – | – | – | –
14 | CCC(C)[C@H]1O[C@]2(C=C[C@@H]1C)C[C@@H]1C[C@@H](C/C=C(\C)[C@@H](O[C@H]3C[C@H](OC)[C@@H](O[C@H]4C[C@H](OC)[C@H](S(=O)(=O)CC)[C@H](C)O4)[C@H](C)O3)[C@@H](C)/C=C/C=C3\CO[C@@H]4[C@H](O)C(C)=C[C@@H](C(=O)O1)[C@]34O)O2 (some centres not stated) | 650 ng/mL | 0.128 ng/mL (≈ 0.135 nM) | 68% | 0.031 mg/kg | – | – | – | – | – | –
15 | CCC(C)[C@H]1O[C@]2(C=C[C@@H]1C)C[C@@H]1C[C@@H](C/C=C(\C)[C@@H](O[C@H]3C[C@H](OC)[C@@H](O[C@H]4C[C@H](OC)[C@H]([S+](C)[O-])[C@H](C)O4)[C@H](C)O3)[C@@H](C)/C=C/C=C3\CO[C@@H]4[C@H](O)C(C)=C[C@@H](C(=O)O1)[C@]34O)O2 (some centres not stated) | 870 ng/mL | 0.262 ng/mL (≈ 0.285 nM) | 64% | 0.031 mg/kg | 91% | 91% | 91% | 91% | 91% | 91%
16 | CCC(C)[C@H]1O[C@]2(C=C[C@@H]1C)C[C@@H]1C[C@@H](C/C=C(\C)[C@@H](O[C@H]3C[C@H](OC)[C@@H](O[C@H]4C[C@H](OC)[C@@H]([S+](C)[O-])[C@H](C)O4)[C@H](C)O3)[C@@H](C)/C=C/C=C3\CO[C@@H]4[C@H](O)C(C)=C[C@@H](C(=O)O1)[C@]34O)O2 (some centres not stated) | 430 ng/mL | – | – | 0.016 mg/kg | 91% | 91% | 91% | 91% | 91% | 91%
17 | CCC(C)[C@H]1O[C@]2(CC[C@@H]1C)C[C@@H]1C[C@@H](C/C=C(\C)[C@@H](O[C@H]3C[C@H](OC)[C@@H](O[C@H]4C[C@H](OC)[C@H]([S+](C)[O-])[C@H](C)O4)[C@H](C)O3)[C@@H](C)/C=C/C=C3\CO[C@@H]4[C@H](O)C(C)=C[C@@H](C(=O)O1)[C@]34O)O2 (some centres not stated) | 870 ng/mL | 0.108 ng/mL (≈ 0.117 nM) | 77% | 0.063 mg/kg | – | – | – | – | – | –
18 | CCC(C)[C@H]1O[C@]2(C=C[C@@H]1C)C[C@@H]1C[C@@H](C/C=C(\C)[C@@H](O[C@H]3C[C@H](OC)[C@@H](O)[C@H](C)O3)[C@@H](C)/C=C/C=C3\CO[C@@H]4[C@H](O)C(C)=C[C@@H](C(=O)O1)[C@]34O)O2 (some centres not stated) [AVERMECTIN MS] | 430 ng/mL | 0.81 ng/mL (≈ 1.11 nM) | 93% | 0.075 mg/kg | – | – | – | – | – | –
